Assay results taken from ChEMBL document CHEMBL1128350, “Design and evaluation of nonpeptide fibrinogen gamma-chain based GPIIb/IIIa antagonists” (J Med Chem, 1995).
Peptide text beside a SMILES is read from it.

Experiments:
[1] = target: T1, Integrin alpha-IIb/beta-3 (Homo sapiens, UniProt P05106+P08514); test: (§1) Inhibition of fibrinogen binding to isolated integrin alphaIIb-beta3 at 50 uM.; format: protein-complex assay
Homo sapiens [2] = species: Homo sapiens; test: Percent inhibition of thrombin-induced platelet aggregation at 50 uM.; format: functional
[3] = target: T1, Integrin alpha-IIb/beta-3; test: Inhibition of biotinylated fibrinogen binding to isolated alpha IIb beta-3 integrin; format: protein-complex assay
Target sequence in this assay (P05106 27-788 limits assumed): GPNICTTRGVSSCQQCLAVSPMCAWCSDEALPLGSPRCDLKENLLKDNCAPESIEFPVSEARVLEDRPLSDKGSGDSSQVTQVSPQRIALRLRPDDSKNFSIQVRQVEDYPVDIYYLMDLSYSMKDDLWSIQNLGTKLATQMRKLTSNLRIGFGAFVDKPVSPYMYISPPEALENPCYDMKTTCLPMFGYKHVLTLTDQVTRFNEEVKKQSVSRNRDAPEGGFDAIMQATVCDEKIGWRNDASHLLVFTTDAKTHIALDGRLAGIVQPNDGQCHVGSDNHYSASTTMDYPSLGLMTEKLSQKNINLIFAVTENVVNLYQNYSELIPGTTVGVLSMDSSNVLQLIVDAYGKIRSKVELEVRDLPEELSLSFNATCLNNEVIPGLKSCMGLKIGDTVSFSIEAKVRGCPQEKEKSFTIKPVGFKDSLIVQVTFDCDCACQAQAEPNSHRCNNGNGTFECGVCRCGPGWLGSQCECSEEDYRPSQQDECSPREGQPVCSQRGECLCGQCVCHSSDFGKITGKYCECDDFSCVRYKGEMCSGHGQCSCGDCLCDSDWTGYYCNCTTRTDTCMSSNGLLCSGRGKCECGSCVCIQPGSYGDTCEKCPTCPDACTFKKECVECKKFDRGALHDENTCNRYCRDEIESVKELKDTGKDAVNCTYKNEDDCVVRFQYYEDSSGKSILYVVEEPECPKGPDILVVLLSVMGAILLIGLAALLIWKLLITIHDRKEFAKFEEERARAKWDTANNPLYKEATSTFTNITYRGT
Target sequence in this assay (P08514 32-887 limits assumed): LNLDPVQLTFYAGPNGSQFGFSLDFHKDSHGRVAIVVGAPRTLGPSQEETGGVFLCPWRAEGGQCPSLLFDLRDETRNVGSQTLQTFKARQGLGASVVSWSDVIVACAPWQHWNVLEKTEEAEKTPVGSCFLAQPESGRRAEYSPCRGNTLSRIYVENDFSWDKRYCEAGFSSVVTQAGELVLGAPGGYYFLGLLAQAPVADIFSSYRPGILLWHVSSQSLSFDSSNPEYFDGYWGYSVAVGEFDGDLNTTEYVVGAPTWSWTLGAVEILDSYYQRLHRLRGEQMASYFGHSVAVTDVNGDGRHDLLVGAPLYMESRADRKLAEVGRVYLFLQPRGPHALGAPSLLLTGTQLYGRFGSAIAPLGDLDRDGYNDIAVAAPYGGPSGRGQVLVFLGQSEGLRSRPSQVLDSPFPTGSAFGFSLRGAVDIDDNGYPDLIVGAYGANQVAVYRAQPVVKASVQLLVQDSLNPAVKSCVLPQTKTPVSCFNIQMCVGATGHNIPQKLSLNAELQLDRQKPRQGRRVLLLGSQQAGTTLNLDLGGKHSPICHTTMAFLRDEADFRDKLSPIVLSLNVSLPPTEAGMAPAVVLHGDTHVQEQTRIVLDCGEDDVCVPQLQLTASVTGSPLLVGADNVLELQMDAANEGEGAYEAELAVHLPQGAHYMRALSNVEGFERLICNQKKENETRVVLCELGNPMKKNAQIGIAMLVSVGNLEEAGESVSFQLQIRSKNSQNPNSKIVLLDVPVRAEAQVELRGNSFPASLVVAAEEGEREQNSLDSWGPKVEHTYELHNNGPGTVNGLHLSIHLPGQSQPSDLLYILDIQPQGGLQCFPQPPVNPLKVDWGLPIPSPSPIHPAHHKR
Target sequence in this assay (P08514 891-1039 limits assumed): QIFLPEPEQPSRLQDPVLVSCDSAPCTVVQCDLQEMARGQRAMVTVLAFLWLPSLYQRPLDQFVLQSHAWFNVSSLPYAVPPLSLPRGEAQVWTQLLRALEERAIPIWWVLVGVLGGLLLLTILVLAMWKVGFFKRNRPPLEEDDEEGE

Homo sapiens [4] = species: Homo sapiens; test: Inhibition of collagen-induced platelet aggregation […].; format: functional
Homo sapiens [5] = species: Homo sapiens; test: Compound was tested for inhibition of thrombin-induced platelet aggregation at the 1.0 uM Conc.; format: functional
Homo sapiens [6] = species: Homo sapiens; test: Inhibition (at 10 uM) of thrombin-induced platelet aggregation; format: functional
Homo sapiens [7] = species: Homo sapiens; test: Inhibition (at 50 uM) of thrombin-induced platelet aggregation; format: functional
[8] = Percent inhibition of thrombin-induced platelet aggregation at the Conc. of 0.1 uM.
[9] = target: T1, Integrin alpha-IIb/beta-3; test: as §1; format: protein-complex assay; remark: listed apart in the source
Target sequence in this assay (P05106 27-788 limits assumed): as the sequence (P05106 27-788 limits assumed) above
Target sequence in this assay (P08514 32-887 limits assumed): as the sequence (P08514 32-887 limits assumed) above
Target sequence in this assay (P08514 891-1039 limits assumed): as the sequence (P08514 891-1039 limits assumed) above

[10] = Percent inhibition of thrombin-induced platelet aggregation at the Conc. of 0.1 uM.; remark: listed apart in the source
Homo sapiens [11] = species: Homo sapiens; test: Percent inhibition of thrombin-induced platelet aggregation at 20 uM.; format: functional

Row | IC50 [3] | Compound | inhibition at 10 µM (Homo sapiens [6]) | inhibition at 50 µM (Homo sapiens [7]) | also measured
1 | 29 nM | CC(C)(C)OC(=O)N[C@@H](CCCCN)C(=O)N1CCCC(C(=O)NCCC(=O)O)C1 (some centres undefined) | 87% | 88% | IC50 (Homo sapiens [4]): 350 nM; inhibition at 1 µM (Homo sapiens [5]): 21%
2 | 2700 nM | CC(C)(C)OC(=O)N[C@H](CCCN=C(N)N)C(=O)N1CCCC(C(=O)NCCC(=O)O)C1 (some centres undefined) | 0% | 17% | 
3 | 1000 nM | N=C(N)NCCC[C@H](N)C(=O)NCC(=O)N[C@@H](CC(=O)O)C(=O)N[C@@H](CS)C(=O)O (H-RGDC-OH) |  |  | 
4 | 4100 nM | H-HHLGGAKQAGDV-OH |  |  | 
5 | 50000 nM | CC(C)(C)OC(=O)N[C@@H](CCCCN)C(=O)N1CCCC(C(=O)NCC(=O)O)C1 (some centres undefined) | 7% | 24% | 
6 | 340 nM | CC(=O)N[C@@H](CCCCN)C(=O)N1CCCC(C(=O)NCCC(=O)O)C1 (some centres undefined) | 67% | 87% | 
7 | 760 nM | NCCCC[C@H](N)C(=O)N1CCCC(C(=O)NCCC(=O)O)C1 (some centres undefined) | 48% | 87% | inhibition at 1 µM (Homo sapiens [5]): 0%

The remaining lines, values behind:

Row | Compound | IC50 [3] | inhibition at 10 µM (Homo sapiens [6]) | inhibition at 50 µM (Homo sapiens [7]) | also measured
8 | C[C@H](NC(=O)OCC1c2ccccc2-c2ccccc21)C(=O)N[C@@H](CCCCN)C(=O)NC12CC3CC(CC(NCC(=O)O)(C3)C1)C2 |  |  |  | inhibition [1]: 42%; inhibition at 50 µM (Homo sapiens [2]): 37%
9 | COC(=O)[C@H](CC(=O)O)NC(=O)C1CCCN(C(=O)[C@H](CCCCN)NC(=O)OC(C)(C)C)C1 (some centres undefined) | 29 nM | 32% | 87% | IC50 (Homo sapiens [4]): 2630 nM; inhibition at 1 µM (Homo sapiens [5]): 2%
10 | CC(C)(C)OC(=O)N[C@H](CCCCN)C(=O)N1CCCC(C(=O)NCCC(=O)O)C1 (some centres undefined) | 740 nM | 12% | 45% | 
11 | CC(C)(C)OC(=O)N[C@@H](CCCCN)C(=O)N1CCC[C@@H](C(=O)NCCC(=O)O)C1 | 8 nM | 87% | 91% | IC50 (Homo sapiens [4]): 220 nM; inhibition at 1 µM (Homo sapiens [5]): 45%; inhibition at 0.1 µM [8]: 2%
12 | CC(C)(C)OC(=O)NC(CCCN=C(N)N)C(=O)NC12CC3CC(CC(NCC(=O)O)(C3)C1)C2 (centres undefined) |  |  |  | inhibition [1]: 28%; inhibition at 50 µM (Homo sapiens [2]): 9%
13 | CC(C)NCCCC[C@@H](NC(=O)OC(C)(C)C)C(=O)N1CCCC(C(=O)NCCC(=O)O)C1 (some centres undefined) |  | 6% | 4% | inhibition at 5 µM [3]: 20%
14 | NCCCC[C@@H](N)C(=O)N1CCCC(C(=O)NCCC(=O)O)C1 (some centres undefined) | 2600 nM | 1% | 8% | 
15 | NCCCCC(NC(=O)OCc1ccccc1)C(=O)NC12CC3CC(CC(NCC(=O)O)(C3)C1)C2 (centres undefined) |  |  |  | inhibition [1]: 26%; inhibition at 50 µM (Homo sapiens [2]): 24%
16 | CC(C)NCCCCC(NC(=O)OC(C)(C)C)C(=O)NC12CC3CC(CC(NCC(=O)O)(C3)C1)C2 (centres undefined) |  |  |  | IC50 [9]: 29900 nM; inhibition at 50 µM (Homo sapiens [2]): 3%
17 | COC(=O)CNC12CC3CC(C1)CC(NC(=O)C(CCCCN)NC(=O)OCC1c4ccccc4-c4ccccc41)(C3)C2 (centres undefined) |  |  |  | inhibition [1]: 1%; inhibition at 50 µM (Homo sapiens [2]): 25%
18 | CC(C)(C)OC(=O)N[C@@H](CCCCN)C(=O)N1CCC[C@H](C(=O)NCCC(=O)O)C1 | 28 nM | 87% | 91% | inhibition at 1 µM (Homo sapiens [5]): 11%
19 | CC(=O)N[C@H](CCCCN)C(=O)N1CCCC(C(=O)NCC(=O)O)C1 (some centres undefined) |  |  | 4% | inhibition at 50 µM [3]: 24%
20 | O=C(O)CCNC(=O)C1CCCN(C(=O)CCC2CCNCC2)C1 (centres undefined) | 9 nM | 89% | 91% | IC50 (Homo sapiens [4]): 140 nM; inhibition at 1 µM (Homo sapiens [5]): 89%; inhibition at 0.1 µM [10]: 4%
21 | CC(C)(C)OC(=O)N[C@H](CCCCN)C(=O)N1CCCC(C(=O)NCCCC(=O)O)C1 (some centres undefined) |  | 0% | 0% | inhibition at 50 µM [3]: 59%
22 | O=C(O)CNC12CC3CC(C1)CC(NC(=O)CCC1CCNCC1)(C3)C2 |  |  |  | inhibition [1]: 49%; inhibition at 50 µM (Homo sapiens [2]): 5%
23 | NCCCCCC(=O)N1CCCC(CNCCC(=O)O)C1 (centres undefined) |  | 24% | 63% | 
24 | CC(C)(C)OC(=O)N[C@@H](CCCCNC(=O)OCc1ccccc1)C(=O)N1CCC[C@@H](C(=O)NCCC(=O)O)C1 | 20000 nM |  |  | 
25 | CC(C)(C)OC(=O)NC(CCCCN)C(=O)NC12CC3CC(CC(NCC(=O)O)(C3)C1)C2 (centres undefined) |  |  |  | inhibition at 20 µM (Homo sapiens [11]): 40%
26 | NCCCCCC(=O)N1CCCC(C(=O)NCCC(=O)O)C1 (centres undefined) |  | 87% | 88% | inhibition at 1 µM (Homo sapiens [5]): 29%
27 | CC(=O)N[C@H](CCCCN)C(=O)N1CCCC(C(=O)NCCC(=O)O)C1 (some centres undefined) | 74 nM | 30% | 88% | inhibition at 1 µM (Homo sapiens [5]): 4%
28 | CC(C)(C)OC(=O)N[C@@H](CCCCN)C(=O)N1CCCC(C(=O)NCCCC(=O)O)C1 (some centres undefined) |  | 7% | 43% | 
29 | NCCCCC(NC(=O)OCc1ccccc1)C(=O)NC12CC3CC(C1)CC(N(CC(=O)O)C(=O)COc1ccccc1)(C3)C2 (centres undefined) |  |  |  | inhibition [1]: 33%; inhibition at 50 µM (Homo sapiens [2]): 2%
30 | COC(=O)CC(NC(=O)CNC12CC3CC(C1)CC(NC(=O)C(CCCCN)NC(=O)OCC1c4ccccc4-c4ccccc41)(C3)C2)C(=O)NC(C(=O)OC)C(C)C (centres undefined) |  |  |  | inhibition [1]: 0%; inhibition at 50 µM (Homo sapiens [2]): 15%
